Measurements as given in publication PMC11724075, “Small-molecule-induced ERBB4 activation to treat heart failure” (Nature Communications, 2025).
Several values for one entry are separate records, joined by “and”; a condition that tells them apart may be missing. Equal entries are not always repeated.

Legend:
HCFs = assay: RT-qPCR on signaling pathway genes in HCFs; type: cell-based, human; details: single replicates
Procedure: RNA was extracted using Nucleospin RNA XS (Macherey-Nagel, 740902.50) according to the manufacturer’s instructions. For cDNA synthesis, total RNA was added to a mixture containing buffer with random hexamers and reverse transcriptase enzyme (TaqMan reverse transcription reagents, Applied biosystems, N8080234) after which samples were incubated for 10 min at 25 °C, 30 min at 48 °C, and 5 min at 95 °C. RT-qPCR was performed on QuantStudio 3 Real-time PCR system (Applied Biosystems) using Taqman Universal PCR Master Mix (Applied Biosystems, 4304437) and Taqman primers according to the manufacturer’s instructions. Settings were as follows: […] followed by 10 min at 95 °C, 40 cycles (45 cycles for ERBB4) of denaturation at 95 °C for 15 s, and 1 min at 60 °C. All reactions were run in duplicate, and all data were normalized against housekeeping genes glyceraldehyde-3-phosphate dehydrogenase (GAPDH), beta-actin (ACTB), or phosphoglycerate kinase 1 (PGK1). Expression levels were calculated using the comparative cycle method and expressed as fold change (FC) to appropriate controls. The following TaqMan primers were used (Thermo Fisher Scientific): GAPDH (Hs02758991_g1, Mm99999915_g1 and Rn01775763_g1), PGK1 (Hs99999906_m1), ID2 (Hs04187239_m1), BMPR1B (Hs01010965_m1), CACNA2D4 (Hs00297782_m1), DUSP2 (Hs00358879_m1), NR4A1 (Hs00374226_m1), SGK1 (Hs00178612_m1), COL1A1 (Mm00801666_g1), COL3A1 (Hs00943809_m1 and Mm00802305_g1), ERBB4 (Hs00955525_m1 and Rn00572447_m1), ACTB (Mm02619580_g1) and ANP (Mm01255747_g1).

ERBB4/ERBB4 = target: T1, ERBB4/ERBB4 (Homo sapiens, UniProt Q15303); assay: NRG1 dose-response in ERBB4/ERBB4 dimerization assay with co-administration of EF-1; type: cell-based
T1 construct: host or cells: U2OS (osteosarcoma cells), PathHunter engineered line
Procedure: U2OS ERBB4/ERBB4 dimerization cells were seeded at a density of 5 × 10^4 cells/well in 100 µL Cell Plating 0 Reagent, in white 96-well plates (PerkinElmer, 6005680) and incubated for 24 h at 37 °C, 5% CO2. […] Next, 110 µL PathHunter Flash Detection Reagent was added to each well and incubated at RT for 1 h after which the luminescence signal was measured using the Luminoskan Ascent (Thermo Fisher Scientific). Dose-response curves of the compounds were performed in 2-fold (0.0625–32 µM). The same experimental set-up was used for the U2OS ERBB2/ERBB4, U2OS ERBB2/ERBB3 and U2OS ERBB1/ERBB1 dimerization cell lines. […]
(b) DRC showing t he effect of NRG1 (full line with full circle) on the […]
1x10-6 M NRG1; n=5 biological replicates for NRG1 + EF -1 10 µM for all concentrations of NRG1, except […]
concentrations of NRG1, except n=2 for 3x10-7 M and 1x10-6 M NRG1). All data are presented as mean ± SD. Source data are provided as a Source Data file . CPD, compound; DRC; dose response curve; FC, fold change; F-NRG1, fluorescent ly labeled NRG1; M, molar concentration; NRG1, neuregulin-1; Veh, […]

[1] = system: mouse model of AngII-induced myocardial fibrosis; assay: AngII-induced myocardial fibrosis mouse model, 4 weeks, Masson's trichrome fibrosis, wild type mice; type: in vivo; design: key to Total fibrosis male in vivo WT with EF-1 / Total fibrosis female in vivo WT with EF-1 / Total fibrosis male in vivo WT with NA-1: fibrotic (blue-stained) area / total area; details: for Perivascular fibrosis male in vivo WT with EF-1 / Total fibrosis male in vivo WT with EF-1: male wild type mice
Procedure: Four weeks after implantation, cardiac ultrasound was performed, mice were euthanized, and hearts were collected. A similar set-up was used for the 1-week study (Alzet, model 1007D) in male mice (n = 9-10 mice in every group).
Hearts were fixed in 4% PFA, paraffin-embedded, and cut into 5-µm sections. Images were acquired with an Olympus BX43 microscope (Olympus Stream Motion Software) or a CELENA® S Digital Imaging System and analyzed with ImageJ 2.14.0 software. Collagen distribution was visualized by Masson’s trichrome staining. Cardiac total fibrosis was expressed as the ratio of positively stained fibrotic area (blue) to the total area and perivascular fibrosis as the ratio of fibrotic area to vascular lumen area. Scar size was determined by measuring the scar length over the […]. Hypertrophy and vascularisation were visualized via an isolectin-B4/WGA/DAPI staining. Quantification was performed by a person blinded to the treatment protocol.

iAMs [2] = assay: EdU proliferation assay in proliferating iAMs; type: cell-based, rat
Procedure: EdU proliferation assay was performed using the Click-iT^TM EdU Cell Proliferation Kit for Imaging (ThermoFisher Scientific, C10337) following the protocol. Proliferating iAMs were seeded at a density of 10^5 cells/well in proliferating medium in 24-well plates and incubated overnight. […] Afterwards, the cell culture media were then replaced with 10 µM EdU in proliferating medium and incubated for 24 h at 37 °C. Next, iAMs were fixed with 4% PFA for 30 min at 4 °C. Cells were washed thrice with PBS, permeabilized by incubation with 0.1% Triton X-100 for 10 min at RT and counterstained with DAPI. Images were obtained by fluorescence microscopy (Celena S).

iAMs [3] = assay: H2O2-induced cell death assay in iAMs (Toxilight), also with LY294002; details: for total cell death of iAMs (percentage of total dead cells): H2O2 100 µM, 4 h; for total cell death of iAMs (percentage of total dead cells) / total cell death of iAMs: single replicates
Procedure: Subsequently, H2O2 (100 µM; Merck, H1009) was added and the cells were incubated for 4 h at 37 °C. All wells contained DMSO at a final concentration of 0.9%. […] After incubation at RT for 5 min, luminescence was measured using the Luminoskan Ascent.

[4] = female wild type mice, AngII/EF-1 group, individual animals
[5] = AngII/EF-1 group, individual animals
[6] = EF-1 group (no AngII), individual animals

T1 sequence (Q15303 26-1308): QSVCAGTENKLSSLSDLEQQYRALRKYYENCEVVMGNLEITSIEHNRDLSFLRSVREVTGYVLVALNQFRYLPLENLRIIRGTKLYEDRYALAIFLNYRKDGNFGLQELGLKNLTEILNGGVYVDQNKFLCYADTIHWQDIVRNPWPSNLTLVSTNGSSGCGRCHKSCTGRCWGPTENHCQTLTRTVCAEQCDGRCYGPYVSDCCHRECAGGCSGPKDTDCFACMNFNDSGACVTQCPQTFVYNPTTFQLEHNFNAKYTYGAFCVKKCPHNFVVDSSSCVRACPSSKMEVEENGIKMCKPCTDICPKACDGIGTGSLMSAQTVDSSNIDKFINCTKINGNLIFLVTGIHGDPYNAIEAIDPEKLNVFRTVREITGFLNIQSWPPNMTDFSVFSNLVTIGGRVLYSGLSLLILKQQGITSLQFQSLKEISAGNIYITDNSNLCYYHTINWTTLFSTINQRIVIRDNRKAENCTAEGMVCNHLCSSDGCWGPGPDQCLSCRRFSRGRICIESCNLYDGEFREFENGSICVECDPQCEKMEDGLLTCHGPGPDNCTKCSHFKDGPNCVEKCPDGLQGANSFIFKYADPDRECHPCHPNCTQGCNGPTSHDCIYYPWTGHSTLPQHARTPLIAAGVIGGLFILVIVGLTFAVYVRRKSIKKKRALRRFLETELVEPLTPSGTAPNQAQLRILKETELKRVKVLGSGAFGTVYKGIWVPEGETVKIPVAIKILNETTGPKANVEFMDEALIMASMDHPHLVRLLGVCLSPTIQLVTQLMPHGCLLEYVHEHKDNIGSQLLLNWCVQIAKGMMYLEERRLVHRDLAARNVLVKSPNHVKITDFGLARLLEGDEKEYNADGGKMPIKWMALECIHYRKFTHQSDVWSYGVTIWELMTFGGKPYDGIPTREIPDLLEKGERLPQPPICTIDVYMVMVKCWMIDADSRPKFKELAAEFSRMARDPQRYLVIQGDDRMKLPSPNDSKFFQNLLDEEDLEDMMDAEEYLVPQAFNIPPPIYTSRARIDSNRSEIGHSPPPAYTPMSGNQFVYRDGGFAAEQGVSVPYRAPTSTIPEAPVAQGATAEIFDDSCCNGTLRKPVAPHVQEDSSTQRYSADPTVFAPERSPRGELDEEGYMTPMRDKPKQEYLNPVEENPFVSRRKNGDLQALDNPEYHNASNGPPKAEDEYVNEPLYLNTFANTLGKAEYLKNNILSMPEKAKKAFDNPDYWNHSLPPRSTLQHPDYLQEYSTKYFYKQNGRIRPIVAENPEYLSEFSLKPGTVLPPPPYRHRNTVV
T1 sequence (Q15303 26-1308): as above

O=C(NC1CC1)C(Sc1nc2ccccc2c(=O)n1C1CCCC1)c1ccccc1 (stereo not drawn) [EF-1]
BMPR1B mRNA, normalized FC compared to vehicle (HCFs): 0.7674 and 0.7715 and 0.7478 and 0.6131 | CACNA2D4 mRNA, normalized FC compared to vehicle (HCFs): 0.6726 and 0.5139 and 0.5641 and 0.6199 | DUSP2 mRNA, normalized FC compared to vehicle (HCFs): 0.652 and 0.6672 and 0.8266 and 0.7945 | ID2 mRNA, normalized FC compared to vehicle (HCFs): 0.7995 and 0.6935 and 0.711 and 0.7833 | NR4A1 mRNA, normalized FC compared to vehicle (HCFs): 0.6281 and 0.8412 and 0.7864 and 0.7806 | SGK1 mRNA, normalized FC compared to vehicle (HCFs): 0.5165 and 0.6795 and 0.6992 and 0.5618 | Chemiluminescence-based competition assay with NRG1 and EF-1, signal (ERBB4/ERBB4; EF-1 1 µM, NRG1 1e-11 M): 0 | Chemiluminescence-based competition assay with NRG1 and EF-1, signal (ERBB4/ERBB4; EF-1 1 µM, NRG1 3e-7 M): 96.5132 and 159.12 and 135.867 and 151.14 | Chemiluminescence-based competition assay with NRG1 and EF-1, signal (ERBB4/ERBB4; EF-1 1 µM, NRG1 1e-6 M): 151.834 and 150.068 and 166.317 | Chemiluminescence-based competition assay with NRG1 and EF-1, signal (ERBB4/ERBB4; EF-1 10 µM, NRG1 1e-11 M): 0 | Chemiluminescence-based competition assay with NRG1 and EF-1, signal (ERBB4/ERBB4; EF-1 10 µM, NRG1 3e-7 M): 204.858 and 319.881 and 318.093 and 238.507 | Chemiluminescence-based competition assay with NRG1 and EF-1, signal (ERBB4/ERBB4; EF-1 10 µM, NRG1 1e-6 M): 299.545 | potentiation of NRG1-induced ERBB4 homodimerization (ERBB4/ERBB4; EF-1 32 µM): 299.5% | Chemiluminescence-based competition assay with NRG1 and EF-1, signal (ERBB4/ERBB4; EF-1 32 µM, NRG1 1e-11 M): 0 | Chemiluminescence-based competition assay with NRG1 and EF-1, signal (ERBB4/ERBB4; EF-1 32 µM, NRG1 1e-7 M): 179.706 and 213.306 and 260.377 and 233.656 and 250.186 | Chemiluminescence-based competition assay with NRG1 and EF-1, signal (ERBB4/ERBB4; EF-1 32 µM, NRG1 3e-7 M): 277.077 and 253.156 | Chemiluminescence-based competition assay with NRG1 and EF-1, signal (ERBB4/ERBB4; EF-1 32 µM, NRG1 1e-6 M): 257.842 and 279.551 | Perivascular fibrosis female in vivo WT with EF-1 [1, 4]: 1.006 and 0.6567 and 0.4251 and 0.5106 and 0.5866 and 0.41 and 0.775 and 0.451 | Total fibrosis female in vivo WT with EF-1 [1, 4]: 0.56 and 1.25 and 0.75 and 1.11 and 0.5 and 0.41 and 1.42 and 0.66 | effect on AngII-induced interstitial and perivascular fibrosis (in words) ([1]; male and female wild type mice, EF-1 2 mg/kg/day, 4 weeks): significantly prevented both interstitial and perivascular fibrosis | Perivascular fibrosis male in vivo WT with EF-1 [1, 5]: 2.195 and 0.9604 and 0.7595 and 1.184 and 2.0179 | Total fibrosis male in vivo WT with EF-1 [1, 5]: 1.541 and 0.4939 and 0.5555 and 0.9884 and 1.07 | Perivascular fibrosis male in vivo WT with EF-1 [1, 6]: 0.7074 and 0.782 and 0.418 and 0.8908 | Total fibrosis male in vivo WT with EF-1 [1, 6]: 0.8052 and 0.5165 and 0.1613 and 0.2053 | EdU-positive nuclei compared to the vehicle group (in words) (iAMs [2]; EF-1 32 µM or NRG1 0.1 µM, 24 h): significant decrease in EdU-positive nuclei | In vitro EdU-positive cell count (iAMs [2]; individual replicates): 0.7127 and 0.7822 and 0.8185 and 0.7982 and 0.7621 | total cell death of iAMs (percentage of total dead cells) (iAMs [3]; EF-1 + SiERBB4, 1e-6 M): 68.0221 and 60.0225 and 62.2886 | total cell death of iAMs (percentage of total dead cells) (iAMs [3]; EF-1 + SiERBB4, 4e-6 M): 72.51 and 56.29 and 70.83 | total cell death of iAMs (percentage of total dead cells) (iAMs [3]; EF-1 + SiERBB4, 8e-6 M): 69.73 and 50.25 and 72.39 | total cell death of iAMs (percentage of total dead cells) (iAMs [3]; EF-1 + SiERBB4, 1.6e-5 M): 67.67 and 53.83 and 80.13 | total cell death of iAMs (percentage of total dead cells) (iAMs [3]; EF-1 + SiERBB4, 3.2e-5 M): 64.65 and 55.01 and 72.56 | total cell death of iAMs (percentage of total dead cells) (iAMs [3]; EF-1 + SiScr, 1e-6 M): 62.2886 and 68.0221 and 60.0225 | total cell death of iAMs (percentage of total dead cells) (iAMs [3]; EF-1 + SiScr, 4e-6 M): 34.38 and 49.85 and 69.84 | total cell death of iAMs (percentage of total dead cells) (iAMs [3]; EF-1 + SiScr, 8e-6 M): 29.53 and 51.53 and 63.09 | total cell death of iAMs (percentage of total dead cells) (iAMs [3]; EF-1 + SiScr, 1.6e-5 M): 23.16 and 29.77 and 55.38 | total cell death of iAMs (percentage of total dead cells) (iAMs [3]; EF-1 + SiScr, 3.2e-5 M): 15.16 and 25.21 and 30.15 | total cell death of iAMs (iAMs [3]; H2O2/EF-1 (32 µM) + LY294002 (20 µM, 10 min pretreatment)): 37.778 and 30.0948 and 30.3358 and 33.2686 | total cell death of iAMs (iAMs [3]; H2O2/EF-1 (32 µM), without LY294002): 27.2571 and 19.0561 and 18.1394 and 25.7513 | decrease of H2O2-induced cardiomyocyte cell death (iAMs [3]; at its highest dose): more than 75%
